test system: human liver microsomes, metabolic stability half-life; experiment: NCATS Human Liver Microsomal (HLM) Stability Profiling; conditions: higher = more stable; screened at 1 µM (by protocol)
Description: Assay submitter (PI): Dr. Pranav Shah
NIH Center for Advancing Translational Sciences
Pharmacokinetic issues were the leading cause of drug attrition, accounting for approximately 40% of all cases before the turn of the century. To this end, several high-throughput in vitro assays like microsomal stability have been developed to evaluate the pharmacokinetic profiles of compounds in early stages of drug discovery. At NCATS, a single-point rat liver microsomal (RLM) stability assay is used as a Tier I assay, while human liver microsomal (HLM) stability is employed as a Tier II assay. While it is beneficial to have compound libraries screened for HLM stability, the increasing magnitude of hits routinely generated, and the time- and re-source-intensive nature of the assay makes it important to find alternatives. One strategy is to rely on in silico models that have been developed using data generated from these assays. Herein, we describe the development of an HLM stability prediction model using our in-house dataset of ~7,000 compounds, employing both traditional and advanced machine learning methods. Additionally, the strong correlation between our RLM and HLM data was further reinforced by the fact that our HLM model performance improved after adding RLM stability predictions as an input descriptor. […] The best model along with a subset of our dataset has been made publicly accessible on the NCATS@ADME website for the benefit of the greater drug discovery community.
Microsomal Stability Assay
The substrate depletion method, also called the in vitro t1/2 method was used to analyze test compounds. Incubation and liquid handling were carried out using a previously described method (Shah et al., 2016). Briefly, each reaction mixture (110 µL) consisted of a test article (1 µM), human liver microsomes (0.5 mg/mL), and NADPH regenerating system in phosphate buffer at pH 7.4. Samples were incubated in 384-well plates at 37 degrees C for 0, 5, 10, 15, 30 and 60 min. At each time point, 10 µL of the incubation mixture was aspirated into another 384-well plate which contained cold acetonitrile (ACN) with internal standard (albendazole). All plates were centrifuged at 3000 rpm for 20 min at 4 degrees C, and the supernatants were transferred to a 384-well injection plate. Sample quantification and analysis was performed using a previously described method (Shah et al., 2016, Siramshetty et al., 2020).
1: Shah, P. et al. An Automated High-Throughput Metabolic Stability Assay Using an Integrated High-Resolution Accurate Mass Method and Automated Data Analysis Software. Drug Metab Dispos 44, 1653-1661 (2016).
2: Siramshetty et al. Retrospective assessment of rat liver microsomal stability at NCATS: data and QSAR models. Sci Rep 26;10(1):20713 (2020).

Row | Compound | half-life [min]
1 | CC1CCN(C(c2ccc(F)cc2)c2ccc(C(C)C(=O)O)cc2-c2ccc(C(F)(F)F)cc2)CC1 (configuration not stated) | 115
2 | CC(C)(C)NC[C@H](O)c1cc(O)cc(O)c1 | > 120
3 | Cc1cccc(C)c1NC(=O)CN1CCCC1 | > 120
4 | Cc1ccc(S(=O)(=O)Nc2nc3n(n2)C(c2ccc(F)cc2)C=C(c2ccccc2)N3)cc1 (configuration not stated) | > 120
5 | O=C(Nc1cccc(C(F)(F)F)c1)Nc1cc(S(=O)(=O)NC2CC2)ccc1-c1ccsc1 | 4.46
6 | O=C(Nc1nnc(-c2ccc3c(c2)OCCO3)o1)C1CCCCC1 | 0.57
7 | COc1ccc2c(c1OC)C(=O)O[C@@H]2[C@H]1c2cc3c(cc2CCN1C)OCO3 | 103
8 | COc1ccc(-c2ccc3cc(C(=O)O)ccc3c2)cc1C12CC3CC(CC(C3)C1)C2 | 46.1
9 | CC(CN1c2ccccc2Sc2ccccc21)N(C)C (configuration not stated) | 32.3
10 | Nc1ccn([C@@H]2O[C@H](CO)[C@H](O)C2(F)F)c(=O)n1 | 22.3
11 | CC1=C(C(=O)Nc2cccc(-c3ccn[nH]3)c2)C(c2ccccc2Cl)N=C(Nc2nc3ccccc3o2)N1 (configuration not stated) | 71.5
12 | Cc1c(N2C(=O)[C@@H]3[C@H](O)CCN3C2=O)ccc(C#N)c1Cl | > 120
13 | NC(=O)c1ccccc1Nc1ccnc(Nc2cccc(O)c2)n1 | 21.8
14 | Cc1ccc(C(=O)N2CCc3cc(CNS(=O)(=O)c4cccs4)ccc32)cc1 | 5.17
15 | Fc1ccc2[nH]c(CN3CCN(c4ccccn4)CC3)cc2c1 | 14.3
16 | CCOc1ccc(S(=O)(=O)N2CCCCCC2)c2ccccc12 | 6.52
17 | COc1ccccc1CN[C@H]1C2CCN(CC2)[C@H]1C(c1ccccc1)c1ccccc1 | 35
18 | O=c1cc(N2CCOCC2)oc2c(-c3cccc(F)c3)nccc12 | 34.5
19 | CCC(=O)c1ccc2c(c1)N(CCCN(C)C)c1ccccc1S2 | 15.4
20 | Cc1cncn1CCc1nc2c3ccccc3nc(SCC(=O)Nc3cccc(Cl)c3)n2n1 | 11.6
21 | Cc1ccc(S(=O)(=O)NC2CCC(C(C)(C)C)CC2)cc1 (configuration not stated) | 3.92
22 | O=C(Nc1ncc([N+](=O)[O-])s1)c1cccs1 | 29

Row | Compound | half-life [min]
23 | CC(=O)OCC(=O)[C@@]1(O)CC[C@H]2[C@@H]3CCC4=CC(=O)C=C[C@]4(C)[C@@]3(F)[C@@H](O)C[C@@]21C | 87.5
24 | S=C(NCc1ccc2c(c1)OCO2)N1CCN(c2ncnc3c2oc2ccccc23)CC1 | 18.6
25 | CCN(Cc1ccc(Cl)nc1)/C(=C/[N+](=O)[O-])NC | > 120
26 | C=CCc1ccccc1OCC(O)CNC(C)C (configuration not stated) | 22
27 | Cc1cc(C)cc(NC(=O)Nc2cccs2)c1 | 3.55
28 | COc1ccccc1Cn1cc(C(=O)c2ccc(Cl)cc2)c(=O)c2cc3c(cc21)OCCO3 | 40.8
29 | CNC(=O)c1ccc(N2C(=S)N(c3cnc(C#N)c(C(F)(F)F)c3)C(=O)C23CCC3)cc1F | > 120
30 | N#Cc1c[nH]c2c(C(=O)N3CCN(CCc4ccc(F)cc4)CC3)cccc12 | 29.8
31 | CCCCOCCOC(=O)c1cccnc1 | 0.66
32 | Nc1ccc(C(=O)Nc2cccc(-c3nc(N4CCOCC4)c4oc5ncccc5c4n3)c2)cn1 | 56.2
33 | CC(C)(O)c1ccccc1CC[C@H](SCC1(CC(=O)O)CC1)c1cccc(/C=C/c2ccc3ccc(Cl)cc3n2)c1 | 36.5
34 | Cc1nc2c3ccccc3nc(NNC(=O)CCC(=O)N3CCN(c4ccccc4)CC3)n2n1 | 107
35 | Cc1ccc(C(=O)NC2CCN(c3cnn(CC4CC4)c(=O)c3)CC2)cc1C | > 120
36 | c1ccc(C2CC2)c(OCC2=NCCN2)c1 | > 120
37 | CN(C)C(CCOc1cccc2ccccc12)c1ccccc1 (configuration not stated) | 12.8
38 | Cc1onc(-c2ccccc2)c1-c1ccc(S(N)(=O)=O)cc1 | > 120
39 | COc1ccc(Cn2c(SCc3ccc(C(=O)NC4CCCC4)cc3)nc3ccncc32)cc1 | 14.5
40 | Cc1cccc(N(C)C(=S)Oc2ccc3ccccc3c2)c1 | 2.99
41 | COc1ccc(OC)c(C2C(C#N)=C(N)Oc3n[nH]c(-c4ccc5ccccc5c4)c32)c1 (configuration not stated) | > 120
42 | O=C(NC1(c2ccccc2)CC1)c1c(CN2CCC(N3CCCCC3)CC2)c(-c2cccc(C(F)(F)F)c2)nc2cc(Br)ccc12 | 28.1
43 | C=C1CC[C@@]2(O)[C@H]3Cc4ccc(O)c5c4[C@@]2(CCN3CC2CC2)[C@H]1O5 | > 120
44 | Cc1cc(C)c(-n2cc(C)c3c(Cl)nc(C)nc32)c(C)c1 | 10.1

Row | Compound | half-life [min]
45 | CC1(COc2ccc3c(c2)ncn3-c2ccc3cccc(N4CCC(N)CC4)c3n2)COC1 | 75.4
46 | COc1cc(C)c(Sc2cnc(NC(=O)c3ccc(CNC(C)C(C)C)cc3)s2)cc1C(=O)N1CCN(C(C)=O)CC1 (configuration not stated) | 8.06
47 | COc1ccc(N(C(=O)Nc2c(C)cccc2C)c2cc(Nc3ccc(N4CCN(C)CC4)cc3)ncn2)c(OC)c1 | 17.1
48 | CN(C)S(=O)(=O)c1ccc(S(=O)(=O)N(Cc2ccco2)Cc2ccccc2Cl)cc1 | 3.33
49 | O=C(NCc1ccco1)c1ccc2c(c1)N(Cc1cccc(Cl)c1)C(=O)c1ccccc1S2=O (configuration not stated) | 0.62
50 | CC(C)c1ccc2oc3nc(N)c(C(=O)O)cc3c(=O)c2c1 | > 120
51 | COc1cc(C(c2c(C)[nH][nH]c2=O)c2c(C)[nH][nH]c2=O)ccc1OC(=O)c1cccc(C)c1 | 2.21
52 | CCOC(=O)C(c1c(O)c2ccccc2oc1=O)c1c(O)c2ccccc2oc1=O | 10.3
53 | CC(=O)N1CCN(C(=O)Cc2ccc(Nc3ncc(F)c(Nc4ccc(C(=O)Nc5ccccc5Cl)cc4)n3)cc2)CC1 | 15.6
54 | Nc1ccc2cc3ccc(N)cc3nc2c1 | 105
55 | COC1CCN(C(=O)c2cc(Cc3n[nH]c(=O)c4ccccc34)ccc2F)CC1 | 76.1
56 | C/C=C(/C(=C/C)c1ccc(OC(C)=O)cc1)c1ccc(OC(C)=O)cc1 | > 120
57 | O=C(CCc1ccccc1)N1CCC(O)(Cn2cnc3cc(Cl)ccc3c2=O)CC1 | 3.16
58 | O=C(NC1CCN(CCCCC2(C(=O)NCC(F)(F)F)c3ccccc3-c3ccccc32)CC1)c1ccccc1-c1ccc(C(F)(F)F)cc1 | 13.5
59 | O=C(Nc1ccc(-c2ccnc(Nc3ccc(N4CCOCC4)cc3)n2)cc1)C1CCCN1 (configuration not stated) | > 120
60 | NC(=Nc1ccc(CCNCc2cccc(Cl)c2)cc1)c1cccs1 | > 120
61 | CCOC(=O)NNc1nncc2ccccc12 | 97.1
62 | Cc1nc(N)ncc1-c1nc(N2CCOCC2)c2sc(C(C)(C)O)cc2n1 | > 120
63 | O=C(CCNc1c(-c2cccc(F)c2)nc2cnccn12)N1CCCC1 | 4.93
64 | COc1ccc2cc(OCC3(C(=O)O)CN(C(=O)c4ccc(F)cc4)C3)ccc2c1 | 8.64
65 | O=C(NCc1ccc(OC(F)(F)F)cc1)C1c2c(F)cccc2C(=O)N1CCc1ccccn1 (configuration not stated) | 6.61
66 | NC1=NCC2c3ccccc3Cc3ccccc3N12 (configuration not stated) | > 120

Row | Compound | half-life [min]
67 | Cc1c(Cl)ccc2sc(N3CCN(C(=O)CS(=O)(=O)c4ccccc4)CC3)nc12 | 61.2
68 | Cc1cc(Nc2nc(N[C@@H](C)c3ccc(F)cc3)c(C#N)cc2F)n[nH]1 | > 120
69 | COP(=S)(OC)Oc1ccc(SC)c(C)c1 | 4.44
70 | COc1ccc(Nc2nnc(-c3ccc(C)c(S(=O)(=O)NCc4nc5ccccc5[nH]4)c3)c3ccccc23)cc1 | 5.8
71 | FC(F)c1nc2ccccc2n1-c1nc(N2CCOCC2)nc(N2CCOCC2)n1 | 25.4
72 | c1ccc(-c2csc(N3CCOCC3)n2)cc1 | 3.95
73 | Cc1c(C)n(Cc2ccc(-c3ccccc3C(=O)O)cc2)c2ccc(C(=O)N[C@@H](C)c3ccc([N+](=O)[O-])cc3)cc12 | > 120
74 | COc1cc2c(NC3CCN(CC4CCCCC4)CC3)nc(N3CCCN(C(C)C)CC3)nc2cc1OCCCN1CCCCC1 | 30
75 | O=C(O)c1ccc2c(c1)nc(Nc1cccc(Cl)c1)c1ccncc12 | 82.5
76 | O=C(O)Cc1sc(-c2ccccc2)nc1-c1ccc(Cl)cc1 | 2.82
77 | COCc1c(Cl)ccc2c1CC[C@H]2c1ncc[nH]1 | 115
78 | Cc1cc(=O)n(-c2ccccc2)n1C | > 120
79 | CCC(C)(C)c1ccc(CC(C)CN2C[C@@H](C)O[C@@H](C)C2)cc1 (some centres not stated) | 12.2
80 | CCCCOCc1cc(CN2CCN(c3cccc(Cl)c3)CC2)c(O)c2ncccc12 | 10.3
81 | CCc1ccc(-n2c(SCc3cccc(F)c3)nc3[nH]ncc3c2=O)cc1 | 80.5
82 | CC(C)(C)Oc1ccc(OCC2Cc3ccccc3CN2C(=O)c2cccc3ccccc23)cc1 (configuration not stated) | 5.19
83 | COCC(C)N(C(=O)CCl)c1c(C)csc1C (configuration not stated) | 10.9
84 | O=C(NCC1CCOCC1)c1cnc(Nc2ccc(Cl)cc2Cl)nc1C(F)(F)F | 38.1
85 | Cc1cccc(C)c1NC(=O)Nc1cccs1 | 80.6
86 | CCOc1ccc(CNC(=O)Cn2c(=O)c3cccn3c3ccc(F)cc32)cc1OC | 80.7
87 | CN[C@@H](C)[C@@H](O)c1ccccc1 | > 120

From PubChem BioAssay AID1963597 (National Center for Advancing Translational Sciences (NCATS), 2024)
